# Results taken from ChEMBL document CHEMBL1201862, “PubChem BioAssay data set” (2004).
#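 Interpolation was linear, between the two tested concentrations surrounding the appropriate level; five concentrations were tested over 48 hours in 96-well plates. GI50 is the concentration that inhibits growth by half.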 Active and inactive are the calls of the source. Cut-off read from the data, not from the text of the source: active = GI50 up to about 1.1 µM and inactive = higher.
# Columns and labels:
# Assay in all cases: growth of human tumour cells (NCI), 48 h
# 786-0 = tested on: 786-0
# A498 = tested on: A498
# A549 = tested on: A549
# ACHN = tested on: ACHN
# BT-549 = tested on: BT-549
# CAKI-1 = tested on: CAKI-1
# CCRF-CEM = tested on: CCRF-CEM
# COLO 205 = tested on: COLO 205
# EKVX = tested on: EKVX
# HCC 2998 = tested on: HCC 2998
# HCT-116 = tested on: HCT-116
# HCT-15 = tested on: HCT-15
# HL-60 = tested on: HL-60
# HOP-62 = tested on: HOP-62
# HOP-92 = tested on: HOP-92
# HT-29 = tested on: HT-29
# Hs-578T = tested on: Hs-578T
# IGROV-1 = tested on: IGROV-1
# K562 = tested on: K562
# KM12 = tested on: KM12
# LOX IMVI = tested on: LOX IMVI
# M14 = tested on: M14
# MCF7 = tested on: MCF7
# MDA-MB-231 = tested on: MDA-MB-231
# MDA-MB-435 = tested on: MDA-MB-435
# MDA-N = tested on: MDA-N
# MOLT-4 = tested on: MOLT-4
# Malme-3M = tested on: Malme-3M
# NCI-H226 = tested on: NCI-H226
# NCI-H23 = tested on: NCI-H23
# NCI-H460 = tested on: NCI-H460
# NCI/ADR-RES = tested on: NCI/ADR-RES
# OVCAR-3 = tested on: OVCAR-3
# OVCAR-4 = tested on: OVCAR-4
# OVCAR-5 = tested on: OVCAR-5
# OVCAR-8 = tested on: OVCAR-8
# PC-3 = tested on: PC-3
# RXF 393 = tested on: RXF 393
# SF-295 = tested on: SF-295
# SF-539 = tested on: SF-539
# SK-MEL-28 = tested on: SK-MEL-28
# SK-MEL-2 = tested on: SK-MEL-2
# SK-MEL-5 = tested on: SK-MEL-5
# SK-OV-3 = tested on: SK-OV-3
# SN12C = tested on: SN12C
# SNB-19 = tested on: SNB-19
# SNB-75 = tested on: SNB-75
# SR = tested on: SR
# SW-620 = tested on: SW-620
# TK-10 = tested on: TK-10
# U-251 = tested on: U-251
# UACC-257 = tested on: UACC-257
# UACC-62 = tested on: UACC-62
# UO-31 = tested on: UO-31
smiles,measurement,setting,value
Nc1ccc(/N=N/c2ccccc2)cc1,GI50,786-0,64.9 µM (inactive)
same,GI50,A498,46.8 µM (inactive)
same,GI50,A549,32.6 µM (inactive)
same,GI50,ACHN,30.3 µM (inactive)
same,GI50,BT-549,65.6 µM (inactive)
same,GI50,CAKI-1,93.1 µM (inactive)
same,GI50,CCRF-CEM,6.41 µM (inactive)
same,GI50,COLO 205,46.1 µM (inactive)
same,GI50,EKVX,28.2 µM (inactive)
same,GI50,HCC 2998,61.5 µM (inactive)
same,GI50,HCT-116,54.6 µM (inactive)
same,GI50,HCT-15,41.2 µM
same,GI50,HL-60,13.4 µM (inactive)
same,GI50,HOP-62,42 µM (inactive)
same,GI50,HOP-92,30.6 µM (inactive)
same,GI50,HT-29,28.6 µM (inactive)
same,GI50,Hs-578T,> 100 µM (inactive)
same,GI50,IGROV-1,29.4 µM (inactive)
same,GI50,K562,35.8 µM (inactive)
same,GI50,KM12,23.8 µM (inactive)
same,GI50,LOX IMVI,26.7 µM (inactive)
same,GI50,M14,44.4 µM (inactive)
same,GI50,MCF7,30.5 µM (inactive)
same,GI50,MDA-MB-231,32.7 µM (inactive)
same,GI50,MDA-MB-435,56.1 µM (inactive)
same,GI50,MDA-N,60.3 µM (inactive)
same,GI50,MOLT-4,11.7 µM (inactive)
same,GI50,Malme-3M,75.9 µM (inactive)
same,GI50,NCI-H226,25.4 µM (inactive)
same,GI50,NCI-H23,61.5 µM (inactive)
same,GI50,NCI-H460,29.1 µM (inactive)
same,GI50,NCI/ADR-RES,34.8 µM (inactive)
same,GI50,OVCAR-3,18.8 µM (inactive)
same,GI50,OVCAR-4,> 100 µM (inactive)
same,GI50,OVCAR-5,> 100 µM (inactive)
same,GI50,OVCAR-8,28 µM (inactive)
same,GI50,PC-3,56.8 µM (inactive)
same,GI50,RXF 393,20.1 µM (inactive)
same,GI50,SF-295,22.2 µM (inactive)
same,GI50,SF-539,35.2 µM (inactive)
same,GI50,SK-MEL-28,> 100 µM (inactive)
same,GI50,SK-MEL-2,22.6 µM (inactive)
same,GI50,SK-MEL-5,53.5 µM (inactive)
same,GI50,SK-OV-3,> 100 µM (inactive)
same,GI50,SN12C,69.5 µM (inactive)
same,GI50,SNB-19,84.1 µM (inactive)
same,GI50,SNB-75,10.3 µM (inactive)
same,GI50,SR,19.3 µM (inactive)
same,GI50,SW-620,51.8 µM (inactive)
same,GI50,TK-10,47.9 µM (inactive)
same,GI50,U-251,46.5 µM (inactive)
same,GI50,UACC-257,> 100 µM (inactive)
same,GI50,UACC-62,27.4 µM (inactive)
same,GI50,UO-31,13.2 µM (inactive)
